Measurements as given in patent US10131652B2, “Pyrimidinyloxy benzene derivatives as herbicides” (E. I. DU PONT DE NEMOURS AND COMPANY, priority 2014, dated 2018).

Legend:
Assay type in all cases: in vivo
[1] = test system: galium (catchweed bedstraw, Galium aparine); experiment: Test B postemergence plant response
In short: (§1)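 Seedlings in a loam soil and sand mix received a postemergence application of the formulated chemicals at the one- to two-leaf stage (2–10 cm tall). They were kept in a greenhouse for roughly 10 days, then scored for injury relative to untreated plants, 0 meaning no effect and 100 complete control.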

[2] = test system: blackgrass (Alopecurus myosuroides); experiment: Test B postemergence plant response
In short: as §1

[3] = test system: wild oat (Avena fatua); experiment: Test D postemergence plant response; details: for Oat, Wild plant response rating: scale 0 to 100 (0 no effect, 100 complete control); for Plant response rating, Oat, Wild: scale 0 to 100, 0 no effect, 100 complete control
Description: (§2) At the same time, plants selected from these crop and weed species and also kochia (Kochia scoparia), wild oat (Avena fatua), and chickweed (common chickweed, Stellaria media) were planted in pots containing Redi-Earth® planting medium (Scotts Company, 14111 Scottslawn Road, Marysville, Ohio 43041) comprising spaghnum peat moss, vermiculite, wetting agent and starter nutrients and treated with postemergence applications of test chemicals formulated in the same manner. Plants ranged in height from 2 to 18 cm (1- to 4-leaf stage) for postemergence treatments. Treated plants and controls were maintained in a greenhouse for 13 to 15 days, after which time all species were compared to controls and visually evaluated. Plant response ratings, summarized in Table D, are based on a scale of 0 to 100 where 0 is no effect and 100 is complete control. A dash (-) response means no test result.

[4] = test system: chickweed (common chickweed, Stellaria media); experiment: Test D postemergence plant response; details: for Chickweed plant response rating: scale 0 to 100 (0 no effect, 100 complete control); for Plant response rating, Chickweed: scale 0 to 100, 0 no effect, 100 complete control
Description: as §2

[5] = test system: kochia (Kochia scoparia); experiment: Test D postemergence plant response; details: for Kochia plant response rating: scale 0 to 100 (0 no effect, 100 complete control); for Plant response rating, Kochia: scale 0 to 100, 0 no effect, 100 complete control
Description: as §2

[6] = 125 g ai/ha, postemergence, 0 to 100 scale, 0 no effect, 100 complete control
[7] = Postemergence, 500 g ai/ha, 0 to 100 scale (0 no effect, 100 complete control)
[8] = Postemergence, 1000 g ai/ha, 0 to 100 scale (0 no effect, 100 complete control)
[9] = 31 g ai/ha, Postemergence, 0 to 100 scale, 0 no effect, 100 complete control
[10] = Postemergence, 31 g ai/ha, 0 to 100 scale (0 no effect, 100 complete control)

SMILES | Plant response rating, Galium [1, 6] | Plant response rating, Galium [1, 7] | Plant response rating, Blackgrass [2, 6] | Plant response rating, Blackgrass [2, 7] | Oat, Wild plant response rating ([3]; 16 g ai/ha) | Oat, Wild plant response rating ([3]; 31 g ai/ha) | Plant response rating, Oat, Wild ([3]; 62 g ai/ha) | Plant response rating, Oat, Wild ([3]; 125 g ai/ha) | Chickweed plant response rating ([4]; 16 g ai/ha) | Chickweed plant response rating ([4]; 31 g ai/ha) | Plant response rating, Chickweed ([4]; 62 g ai/ha) | Plant response rating, Chickweed ([4]; 125 g ai/ha) | Kochia plant response rating ([5]; 16 g ai/ha) | Kochia plant response rating ([5]; 31 g ai/ha) | Plant response rating, Kochia ([5]; 62 g ai/ha) | Plant response rating, Kochia ([5]; 125 g ai/ha) | Plant response rating, Galium [1, 9] | Plant response rating, Blackgrass [2, 9] | further results
Cn1nnc(-c2ccccc2Oc2ncc(Br)cn2)n1 [Compound 50] | 90 | 100 | 40 | 60 | 0 | 0 | 0 | 0 | 0 | 0 | 5 | 5 | 0 | 0 | 5 | 15 | – | – | –
FC(F)(F)c1cc(-c2ccccc2Oc2ncc(Cl)cn2)ncn1 [Compound 54] | 100 | 100 | 70 | 80 | 0 | 0 | 5 | 5 | 5 | 5 | 5 | 5 | 50 | 55 | 80 | 80 | – | – | –
FCc1cc(-c2c(F)cccc2Oc2ncc(Cl)cn2)no1 [Compound 57] | – | – | – | – | 0 | 0 | 5 | 15 | 30 | 50 | 55 | 75 | 75 | 90 | 95 | 100 | – | – | Plant response rating, Galium [1, 8]: 90; Plant response rating, Blackgrass [2, 8]: 90
Cc1cc(-c2ccccc2Oc2ncc(Cl)cn2)no1 [Compound 60] | 100 | 100 | 50 | 100 | 5 | 0 | 0 | 5 | 45 | 50 | 60 | 75 | 50 | 50 | 55 | 90 | – | – | –
Fc1ccc(Oc2ncc(Cl)cn2)c(-c2cc(C(F)F)on2)c1F [Compound 113] | 100 | – | 90 | – | 10 | 15 | 10 | 25 | 70 | 85 | 90 | 95 | 90 | 100 | 100 | 100 | 90 | 60 | –
FC(Cl)c1cc(-c2ccccc2Oc2ncc(Cl)cn2)no1 (centres unmarked) [Compound 116] | 70 | – | 30 | – | 5 | 5 | 10 | 15 | 5 | 15 | 30 | 90 | 100 | 100 | 100 | 100 | 60 | 20 | –
Fc1cccc(Oc2ncc(Br)cn2)c1-c1cc(C(F)F)on1 [Compound 118] | 100 | – | 100 | – | 5 | 10 | 15 | 50 | 75 | 70 | 90 | 98 | 95 | 95 | 95 | 100 | 100 | 60 | –
FC(F)c1cc(-c2c(Cl)cccc2Oc2ncc(Cl)cn2)on1 [Compound 120] | 100 | – | 90 | – | 35 | 40 | 55 | 60 | 95 | 100 | 100 | 100 | 98 | 100 | 100 | 100 | 100 | 70 | –
FC(F)c1cc(-c2c(Cl)cccc2Oc2ncc(Br)cn2)on1 [Compound 121] | 100 | – | 80 | – | – | 45 | 70 | 70 | 95 | 100 | 100 | 100 | – | 100 | 100 | 100 | 100 | 50 | –
Fc1cccc(Oc2ncc(Cl)cn2)c1-c1cc(C2CC2)on1 [Compound 130] | 90 | – | 80 | – | – | 15 | 35 | 60 | 80 | 80 | 80 | 95 | – | 95 | 100 | 100 | – | 50 | –
FC(F)Oc1cccc(Oc2ncc(Cl)cn2)c1-c1cc(C(F)F)on1 [Compound 131] | 90 | – | 80 | – | – | 15 | 20 | 35 | 65 | 80 | 98 | 100 | – | 90 | 95 | 100 | – | 50 | –
FC(F)(Cl)c1cc(-c2ccccc2Oc2ncc(Cl)cn2)no1 [Compound 143] | 100 | – | 60 | – | – | 0 | 5 | 5 | 45 | 50 | 60 | 80 | – | 100 | 100 | 100 | – | – | Plant response rating, Galium [1, 10]: 50; Plant response rating, Blackgrass [2, 10]: 30
Cc1cc(-c2ccccc2Oc2ncc(Cl)cn2)no1 [Compound 153] | 90 | 100 | 40 | 90 | – | 0 | 0 | 0 | 20 | 20 | 20 | 25 | – | 50 | 40 | 60 | – | – | –
